From patent US20240116942A1, “SELECTIVE CDK 4/6 INHIBITOR CANCER THERAPEUTICS” (LUNELLA BIOTECH, INC., priority 2020, published 2024)

Tested on: CSCs (3D tumor sphere formation)
Test: not given
Settings: mitochondrial inhibitors; background statement; cited from earlier work
In the case of `Cc1n[nH]c(C)c1Cc1sc2c(c1C(=O)N1C[C@H](O)CO1)c(=O)n(C)c(=O)n2CC(C)C` [AR-C155858], the “3D tumor sphere formation” value is listed as “successfully blocked”. In the case of `O=C(/C=C/c1ccc(O)c(O)c1)OCCc1ccccc1` [CAPE], the “3D tumor sphere formation” value is given as “successfully blocked”. For `CCCCC[C@H](CC(=O)NO)C(=O)N[C@H](C(=O)N1CCC[C@H]1CO)C(C)C` [actinonin], the “3D tumor sphere formation” value is listed as “successfully blocked”. For `CC[C@H]1OC(=O)[C@H](C)[C@@H](O[C@H]2C[C@@](C)(OC)[C@@H](O)[C@H](C)O2)[C@H](C)[C@@H](O[C@@H]2O[C@H](C)C[C@H](N(C)C)[C@H]2O)[C@](C)(O)C[C@@H](C)CN(C)[C@H](C)[C@@H](O)[C@]1(C)O` [azithromycin], the “3D tumor sphere formation” value is listed as “successfully blocked”. In the case of `COc1nc2ccc(Br)cc2cc1[C@@H](c1ccccc1)[C@@](O)(CCN(C)C)c1cccc2ccccc12` [bedaquiline], the “3D tumor sphere formation” value is listed as “successfully blocked”. In the case of `COc1ccc2cc3[n+](cc2c1OC)CCc1cc2c(cc1-3)OCO2` [berberine], the “3D tumor sphere formation” value is given as “successfully blocked”. In the case of `COc1ccc([C@@H]2CC(=O)c3c(O)cc(O[C@@H]4O[C@H](COC(=O)CC(C)(O)CC(=O)O)[C@@H](O)[C@H](O)[C@H]4O[C@@H]4O[C@@H](C)[C@H](O)[C@@H](O)[C@H]4O)cc3O2)cc1O` (stereo partly drawn) [brutieridin], the “3D tumor sphere formation” value is given as “successfully blocked”. In the case of `C[C@@H]1O[C@@H](O[C@@H]2[C@@H](Oc3cc(O)c4c(c3)O[C@H](c3ccc(O)cc3)CC4=O)O[C@@H](COC(=O)C[C@@](C)(O)CC(=O)O)[C@H](O)[C@H]2O)[C@@H](O)[C@H](O)[C@H]1O` [melitidin], the “3D tumor sphere formation” value is listed as “successfully blocked”. In the case of `CC[C@H]1/C=C/C=C/C[C@@H](C)[C@H](O)[C@@](C)(O)C(=O)[C@@H](C)[C@H](O)[C@@H](C)C(=O)[C@@H](C)[C@H](O)[C@@H](C)/C=C/C(=O)O[C@@H]2[C@H](C)[C@H](CC1)O[C@]1(CC[C@H](C)[C@H](C[C@@H](C)O)O1)[C@H]2C` [oligomycin], the “3D tumor sphere formation” value is given as “successfully blocked”. In the case of `CN(C)c1cc(NC(=O)CNC(C)(C)C)c(O)c2c1C[C@H]1C[C@H]3[C@H](N(C)C)C(O)=C(C(N)=O)C(=O)[C@@]3(O)C(O)=C1C2=O` [tigecycline], the “3D tumor sphere formation” value is listed as “successfully blocked”.

Tested on: MCF7 cells
Test: mammosphere assay
Assay type: cell-based
Settings: compared to Trilaciclib
From the text: Moreover, CSCs are strikingly resilient and highly resistant to cellular stress, which allows them to undergo anchorage-independent growth, especially under conditions of low-attachment. As a consequence, they form 3D spheroids, which retain the properties of CSCs and stem cell progenitors. In contrast, when subjected to growth in suspension, most “bulk” cancer cells die, via anoikis—a specialized type of apoptosis. […] Therefore, 3D spheroid formation is a functional read-out for stemness in epithelial cancer cells and allows one to enrich for a population of epithelioid cells with a stem-like phenotype. These 3D spheroids are also known as mammospheres when they are prepared using breast cancer cells, such as MCF7, among others.
In the case of `CCCCCCCCCCCCCC(=O)N1CCN(c2ccc(Nc3ncc4cc5n(c4n3)C3(CCCCC3)CNC5=O)nc2)CC1` [formula [2]], the “inhibition of MCF7 cells in the mammosphere assay” value is reported as “remarkably improved inhibition”. For `CCCCCCCCCCCCCCCC(=O)CCN1CCN(c2ccc(Nc3ncc4cc5n(c4n3)C3(CCCCC3)CNC5=O)nc2)CC1` [formula [3]], the “inhibition of MCF7 cells in the mammosphere assay” value was “remarkably improved inhibition”.
